Test results reported in paper PMC8395935 (Medical Sciences, 2021).

Legend:
CD-1 mice [1] = assay: Body weight and fasting blood glucose after chronic rapamycin treatment; format: in vivo
Experimental: (§1) The vehicle was prepared by creating a 1.2% DMSO solution in 5% Tween 80, 5% PEG 400.
(§2) The blood glucose was measured via the tail vein (AlphaTrak2, Abbott Laboratories, Chicago, IL, USA). […] The radioactivity circulated for times between 1–10 min, after which the carotid artery was cut to collect blood. The mice were immediately decapitated and the whole brain was removed and weighed. The blood was centrifuged at 5400 g for 10 min and the amount of radioactivity in the serum (50 µL) and the whole brain was counted in a gamma counter (Wizard2, PerkinElmer, Waltham, MA, USA). Two separate cohorts of mice were combined in the final analyses. […] Naïve male mice were anesthetized as described.

[2] = following an 8 mg/kg body weight IP injection; cited from earlier work
CD-1 mice [3] = assay: Measurement of hormone levels in serum and brain lysate (Bio-Plex Pro Mouse Diabetes Assay); format: in vivo; conditions: 2 weeks rapamycin 8 mg/kg
Experimental: (§3) Following a 6 h fast, blood glucose was taken. The mice were anesthetized as described above, the thoracic cavity was opened, and blood was collected from the descending aorta. […] The brain vasculature was washed out by perfusing 20 mL of ice cold LR into the left ventricle of the heart. The brain was removed and split into the right and left hemispheres. The aorta was also removed. The blood was centrifuged at 5400 g for 10 min and the serum was collected. All the tissues were snap frozen in liquid nitrogen and stored at −80 °C until further processing.
(§4) The right hemisphere was crushed with a mortar and pestle in liquid nitrogen and approximately 100 mg of tissue was homogenized in radioimmunoprecipitation assay (RIPA) buffer (150 mM NaCl, 0.5% deoxycholic acid, 0.1% sodium dodecyl sulfate (SDS), 20 mM Tris HCl, and 2 mM ethylenediaminetetraacetic acid (EDTA)) plus freshly added 1/100 dilutions of a protease inhibitor cocktail (Sigma-Aldrich), 1mM sodium orthovanadate, and a phosphatase inhibitor (1 tablet PhosSTOP per 10 mL buffer) (Roche, Basel, Switzerland). The aortas were homogenized in the same lysis buffer. The samples were sonicated at 40% amplitude prior to centrifugation at 12,000× g for 10 min at 4 °C. The supernatants were collected and frozen at −80 °C. The protein was measured using the Pierce BCA Protein Assay Kit (Thermo Fisher Scientific, Rockford, IL, USA).
A panel of 8 metabolic hormones was measured in the brain lysate and serum using a Bio-Plex Pro Mouse Diabetes Assay (Bio-Rad Laboratories, Hercules, CA, USA): ghrelin, glucose-dependent insulinotropic peptide (GIP), glucagon-like peptide-1 (GLP-1), glucagon, insulin, leptin, plasminogen activator inhibitor-1 (PAI-1), and resistin. The serum was diluted 1:4 with the kit diluent. Twenty µg/µL protein lysate samples were measured from the right hemisphere. The samples were measured according to the manufacturer and read on a Bio-Plex 200 (Bio-Rad Laboratories).

CD-1 mice [4] = assay: Measurement of serum cytokines (Bio-Plex Pro Mouse Cytokine Assay); format: in vivo; conditions: 2 weeks rapamycin 8 mg/kg
Experimental: as §3
A panel of 23 cytokines was measured in the brain protein lysate and serum using a mouse Bio-Plex Pro Mouse Cytokine Assay (Bio-Rad Laboratories): interleukin (IL)-1α; IL-1β; IL-2; IL-3; IL-4; IL-5; IL-6; IL-9; IL-10; IL-12(p40); IL-12(p70); IL-13; IL-17; eotaxin (CCL11); granulocyte colony-stimulating factor (G-CSF); granulocyte-macrophage colony-stimulating factor (GM-CSF); interferon (IFN)-γ; keratinocyte chemoattractant (KC) (CXCL1); monocyte chemoattractant protein (MCP)-1 (CCL2); macrophage inflammatory protein (MIP)-1α (CCL3); MIP-1β (CCL4); and regulated on activation, normal T cell expressed and secreted (RANTES; CCL5) and tumor necrosis factor (TNF)-α). The serum samples were diluted 1:4 with the kit sample diluent. The samples were measured according to the manufacturer and read on a Bio-Plex 200 (Bio-Rad Laboratories).

mice [5] = conditions: cited from earlier work
Excerpt: (§5) Triglycerides were one mechanism we hypothesized rapamycin could impact insulin BBB transport. […] A study in humans reported an increase in the serum triglyceride levels by approximately 47% follow ...

humans = conditions: 10 mg/day dose for 42 days as tolerated, patients with initial hyperlipidemic response; cited from earlier work
Excerpt: as §5

CD-1 mice [6] = assay: Transcardiac brain perfusion (absence of serum factors) after chronic rapamycin treatment; conditions: rapamycin 8 mg/kg IP daily for 2 weeks
Experimental: as §1
Perfusate was collected throughout the study to determine the average cpm/µL of perfusate. After perfusion, the whole brain was weighed and the amount of radioactivity was counted in a gamma counter (Wizard2, PerkinElmer). The brain/perfusate ratios were calculated by dividing the cpm in a gram of brain by the cpm in a µL of perfusate to yield the units of µL/g.
(§6) The exposure time is calculated by the formula:(1) Exposure time=∫0tCptdt/Cpt where Cp(t) is the level of radioactivity (cpm) in the serum at time (t). The exposure time corrects for the clearance of peptide from the blood. […] The slope of the linearity measures the Ki and is reported with its standard error term. The y-intercept of the linearity measures the Vi, the initial volume of distribution in brain at t = 0 [11].

mice [7] = conditions: cited from earlier work; remark: listed apart in the source
Excerpt: We observed a decrease in body weight only in males.

CD-1 mice [8] = assay: Intravenous injection study with multiple-time regression analysis after an acute rapamycin i.v. injection; conditions: male CD-1 mice
Experimental: as §2, §6

CD-1 mice [9] = assay: Intravenous injection study with multiple-time regression analysis after chronic rapamycin treatment; conditions: for Vi (125I-insulin vascular binding) / Ki (125I-insulin BBB transport): rapamycin 8 mg/kg IP daily for 2 weeks, i.v. tracer
Experimental: as §1, §2, §6

aorta = assay: Western immunoblotting of insulin signaling proteins in the aorta; format: in vivo, mice; conditions: 2 weeks rapamycin 8 mg/kg
Experimental: as §3
as §4, with “USA). […]” for “USA).”

CD-1 mice [10] = assay: Serum triglyceride levels after chronic rapamycin treatment; format: in vivo; conditions: two-week rapamycin treatment 8 mg/kg IP daily; males and females; n = 4/group
[11] = female CD-1 mice, transcardiac perfusion

With `CO[C@H]1C[C@@H]2CC[C@@H](C)[C@@](O)(O2)C(=O)C(=O)N2CCCC[C@H]2C(=O)O[C@H]([C@H](C)C[C@@H]2CC[C@@H](O)[C@H](OC)C2)CC(=O)[C@H](C)/C=C(\C)[C@@H](O)[C@@H](OC)C(=O)[C@H](C)C[C@H](C)/C=C/C=C/C=C/1C` [Rapamycin] as the compound, how does the body weight gain (CD-1 mice [1]; 2 weeks of rapamycin 8 mg/kg IP daily, males n = 24-34, females n = 18-19) read?
The body weight gain was “impacted body weight gain in males only”.

What about the “fasting blood glucose levels” value (CD-1 mice [1]; females, 2 weeks rapamycin 8 mg/kg IP daily, 6 h fast, p = 0.19) of the same compound?
The value was “did not have the same increase”.

What about the “mean fasting blood glucose levels” value (CD-1 mice [1]; males, 2 weeks rapamycin 8 mg/kg IP daily, 6 h fast, p < 0.001 vs vehicle (157 mg/dL), n = 12-16/group) of the same compound?
The value was 226 mg/dL.

What about the blood rapamycin levels [2] of the same compound?
Its blood rapamycin levels is 100 ng/mL.

And the “serum GLP-1 levels” value (CD-1 mice [3]; 6 h fast, treatment p = 0.015, n = 4/group)?
The value was “significantly increased”.

What about the serum resistin levels (CD-1 mice [3]; males and females, 6 h fast, p < 0.0001, n = 4/group) of the same compound?
Its serum resistin levels is “significantly decreased”.

What about the “ghrelin, GIP, glucagon, or leptin levels” value (CD-1 mice [3]; serum, 6 h fast, n = 4/group) of the same compound?
The value was “no effect”.

What about the brain insulin levels (CD-1 mice [3]; whole brain lysate, treatment p = 0.034, post hoc p = 0.014, n = 3-4/group) of the same compound?
Its brain insulin levels is “significant differences in females only”.

What about the “serum IL-2 levels” value (CD-1 mice [4]; 6 h fast, p = 0.009, n = 3/group) of the same compound?
The value was “increased”.

And the “serum IL-17 levels” value (CD-1 mice [4]; 6 h fast, p = 0.023, n = 3/group)?
Its value is “increased”.

And the “serum IL-3 levels” value (CD-1 mice [4]; 6 h fast, treatment p = 0.004, post hoc in males p = 0.007, n = 3/group)?
Its value is “increased significantly”.

And the “serum TNF-α, RANTES, and GM-CSF levels” value (CD-1 mice [4]; not statistically significant (0.05 < p < 0.07))?
Its value is “trend towards an increase”.

What about the “increase in serum triglyceride levels” value (mice [5]; growth hormone receptor knockout male mice, 4 mg/kg every other day for 20 weeks) of the same compound?
Its value is “approximately 12%”.

What about the serum triglyceride levels (mice [5]; mice fed rapamycin orally) of the same compound?
The serum triglyceride levels was “no differences were observed”.

And the “increase in serum triglyceride levels” value (humans)?
The value was “approximately 47%”.

And the “Ki (125I-insulin BBB transport, absence of serum factors)” value (CD-1 mice [6]; [11])?
Its value is 1.89 ± 0.63 µL/g/min.

And the “Vi (125I-insulin vascular binding, absence of serum factors)” value (CD-1 mice [6]; [11])?
Its value is 8.3 ± 2.1 µL/g.

What about the “Vi (125I-insulin vascular binding, absence of serum factors)” value (CD-1 mice [6]; male CD-1 mice, transcardiac perfusion) of the same compound?
The value was 8.0 ± 1.7 µL/g.

What about the “Ki (125I-insulin BBB transport, absence of serum factors)” value (CD-1 mice [6]; male CD-1 mice, transcardiac perfusion 2 mL/min, 1-5 min, brain/perfusate ratio vs clock time) of the same compound?
The value was 1.35 ± 0.53 µL/g/min.

And the glucose tolerance (mice [7]; 2 weeks of daily injections of a fourfold lower concentration than the current study)?
Its glucose tolerance is “impair glucose tolerance”.

And the serum glucose levels (mice [7]; five weeks of daily rapamycin treatment, mice fasted overnight)?
Its serum glucose levels is “increase”.

And the “Ki (unidirectional influx of 125I-insulin from blood to brain)” value (CD-1 mice [8]; rapamycin 400 ng i.v. 10 min before 125I-insulin i.v., brain/serum ratio corrected with 99mTc-albumin, 1-10 min, slope ± standard error, gamma counter)?
The value was 0.541 ± 0.13 µL/g/min.

What about the “Vi (125I-insulin vascular binding)” value (CD-1 mice [8]; rapamycin 400 ng i.v. 10 min before 125I-insulin i.v., y-intercept of regression, p = 0.02 vs vehicle) of the same compound?
The value was 10.1 ± 1.3 µL/g.

What about the “rate of insulin BBB transport (Ki)” value (CD-1 mice [8]; rapamycin 400 ng i.v. 10 min before tracer, p = 0.63 vs vehicle) of the same compound?
Its value is 0.54 ± 0.1 µL/g/min.

What about the “Vi (125I-insulin vascular binding)” value (CD-1 mice [9]; female CD-1 mice) of the same compound?
Its value is 9.9 ± 2.9 µL/g.

And the “Ki (125I-insulin BBB transport)” value (CD-1 mice [9]; female CD-1 mice, linear regression not significant (ns))?
Its value is 0.73 ± 0.34 µL/g/min.

And the “Vi (125I-insulin vascular binding)” value (CD-1 mice [9]; male CD-1 mice)?
Its value is 4.0 ± 1.0 µL/g.

What about the “Ki (125I-insulin BBB transport)” value (CD-1 mice [9]; male CD-1 mice, slope ± standard error, p = 0.055 vs vehicle) of the same compound?
Its value is 1.32 ± 0.19 µL/g/min.

And the “vascular marker 99mTc-albumin (BBB integrity)” value (CD-1 mice [9]; two-week rapamycin treatment, data not shown)?
The value was “no effect”.

What about the “MAPK protein expression relative to β-actin” value (aorta; males and females, treatment p = 0.006, n = 3-4/group) of the same compound?
Its value is “significant increase”.

What about the “phosphorylated Akt (pAkt Ser473) relative to total Akt” value (aorta; only in males, interaction p = 0.0918, n = 3-4/group) of the same compound?
Its value is “trend in decreased levels”.

And the serum triglyceride levels (CD-1 mice [10])?
Its serum triglyceride levels is “did not elicit a significant change”.
